Source: patent publication US20120196019A1, “STEVIA SWEETENER WITH A SURFACTANT” (priority 2011, published 2012)
Read-outs that look alike come from different tables or passages of the source.

Tests used:
[1] = cited from earlier work; for taste in sensory tests: 100% purity
[2] = DLS size determination of 500 ppm RA solutions with gum Arabic (Example 5, FIGS. 7-9); type: physicochemical; details: conclusion of Example 5
Protocol: This example was for size determination.
The solutions noted below were filtered with a 0.45 μm membrane.
Measurements were obtained by DLS after the solution was filtered and allowed to equilibrate for six hours.
According to FIGS. 7 through 9, it was determined that: […]

[3] = Saturation of Reb A aqueous solution (Example 3); type: physicochemical; details: water
Protocol: Three concentrations of Reb A aqueous solutions were prepared: 500 ppm, 0.8% and 2.0%.
The 0.8% (by weight) is saturated.
The 2.0% (by weight) is over-saturated. After preparation, Reb A will continue to precipitate slowly and finally result in a 0.8% solution.

size of micelles that the molecules tend to form in solution [2]: above 1000 nm | stability of the solution (aggregation) [2]: unstable | concentration of the saturated aqueous solution [3]: 0.8 % (by weight)
Compound: C=C1C[C@@]23CC[C@H]4[C@@](C)(CCC[C@@]4(C)C(=O)O[C@@H]4O[C@H](CO)[C@@H](O)[C@H](O)[C@H]4O)[C@@H]2CC[C@]1(O[C@@H]1O[C@H](CO)[C@@H](O)[C@H](O[C@@H]2O[C@H](CO)[C@@H](O)[C@H](O)[C@H]2O)[C@H]1O[C@@H]1O[C@H](CO)[C@@H](O)[C@H](O)[C@H]1O)C3 [Reb A, Rebaudioside A]
taste in sensory tests ([1]; 200 ppm aqueous solution): cannot bring a perfect taste close to sugar | taste in sensory tests ([1]; higher concentrations, for example 500 ppm): bitterness and aftertaste issues appear strongly | taste quality (increased sweetness and decreased bitterness) ([1]; Phytochemistry 68, 2007, 1855-1863): better than stevioside
